Test results taken from US20250270190A1, “KIT INHIBITORS” (BLUEPRINT MEDICINES CORPORATION, priority 2022, published 2025).

Target: T1, c-kit autophosphorylation (Phospho c-Kit Tyr721) in HMC 1.1 (exon 11/13) cells, V654A (Homo sapiens, UniProt P10721, V560G/V654A)
T1 construct: endogenous in cells; host or cells: HMC 1.1 (exon 11/13) cells
Experiment: pKIT Meso Scale Discovery (MSD) assay, inhibition of autophosphorylation of KIT, HMC1.1_V654A
Assay type: cell-based
Settings: Table 1, cell line not named for Table 1, b1056 names pKIT HMC1.1_V654A, read-out: Code (IC50 for inhibition of autophosphorylation of KIT, pKIT MSD assay)
How it was run: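 HMC1.1 cells were serum-starved for 4 h in serum-free, iron-free, phenol red-free IMDM, then treated with compound in dose-response for 90 min at 37 °C. Staurosporine and DMSO served as controls. Lysates were analysed by MSD electrochemiluminescence immunoassay for phospho-c-Kit Tyr721, and % inhibition of autophosphorylation was derived.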

T1 sequence (P10721 26-976 V560G/V654A): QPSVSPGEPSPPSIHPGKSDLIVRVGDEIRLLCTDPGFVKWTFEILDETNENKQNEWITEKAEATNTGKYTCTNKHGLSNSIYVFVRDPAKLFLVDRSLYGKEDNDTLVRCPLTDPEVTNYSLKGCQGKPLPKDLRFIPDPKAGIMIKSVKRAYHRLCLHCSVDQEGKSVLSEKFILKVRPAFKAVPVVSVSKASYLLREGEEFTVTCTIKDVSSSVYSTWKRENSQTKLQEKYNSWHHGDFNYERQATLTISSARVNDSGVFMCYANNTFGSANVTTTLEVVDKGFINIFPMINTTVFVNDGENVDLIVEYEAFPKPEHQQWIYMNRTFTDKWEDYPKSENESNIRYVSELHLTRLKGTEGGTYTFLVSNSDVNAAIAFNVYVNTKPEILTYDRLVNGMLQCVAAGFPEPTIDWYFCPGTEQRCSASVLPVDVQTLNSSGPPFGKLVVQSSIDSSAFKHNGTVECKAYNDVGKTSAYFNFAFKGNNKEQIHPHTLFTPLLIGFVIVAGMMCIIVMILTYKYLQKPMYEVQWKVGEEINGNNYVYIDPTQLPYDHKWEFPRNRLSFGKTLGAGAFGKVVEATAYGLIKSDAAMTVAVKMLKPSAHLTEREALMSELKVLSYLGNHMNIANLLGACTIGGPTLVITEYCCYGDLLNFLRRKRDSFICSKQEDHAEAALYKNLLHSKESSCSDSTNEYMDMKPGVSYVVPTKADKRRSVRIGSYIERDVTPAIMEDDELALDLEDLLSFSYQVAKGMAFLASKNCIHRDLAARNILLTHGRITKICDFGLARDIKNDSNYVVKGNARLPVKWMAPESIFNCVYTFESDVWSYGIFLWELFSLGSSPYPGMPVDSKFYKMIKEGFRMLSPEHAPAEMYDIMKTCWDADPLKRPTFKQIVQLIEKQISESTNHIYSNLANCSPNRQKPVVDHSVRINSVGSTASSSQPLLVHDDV

IC50 [nM] | SMILES
< 10 | CNC(C)(C)Cn1cc(-c2cnc(Nc3cc(N)nc(C(F)F)n3)cc2OC(F)(F)F)cn1 [Compound 200, 2-(difluoromethyl)-N4-(5-(1-(2-methyl-2-(methylamino)propyl)-1H-pyrazol-4-yl)-4-(trifluoromethoxy)pyridin-2-yl)pyrimidine-4,6-diamine]
10 to 40 | CN1CC(n2cc(-c3cnc(Nc4cc(N)nc(C(F)F)n4)cc3OC[C@@H]3CCCO3)cn2)C1 [Compound 201, (S)-2-(difluoromethyl)-N4-(5-(1-(1-methylazetidin-3-yl)-1H-pyrazol-4-yl)-4-((tetrahydrofuran-2-yl)methoxy)pyridin-2-yl)pyrimidine-4,6-diamine]
10 to 40 | CN1CC(n2cc(-c3cnc(Nc4cc(N)nc(C(F)F)n4)cc3OC[C@H]3CCCO3)cn2)C1 [Compound 202, (R)-2-(difluoromethyl)-N4-(5-(1-(1-methylazetidin-3-yl)-1H-pyrazol-4-yl)-4-((tetrahydrofuran-2-yl)methoxy)pyridin-2-yl)pyrimidine-4,6-diamine]
< 10 | CN(CCn1cc(-c2cnc(Nc3cc(N)nc(C(F)F)n3)cc2OC2CC2)cn1)CC(F)(F)F [Compound 203, N4-(4-cyclopropoxy-5-(1-(2-(methyl(2,2,2-trifluoroethyl)amino)ethyl)-1H-pyrazol-4-yl)pyridin-2-yl)-2-(difluoromethyl)pyrimidine-4,6-diamine]
